From ChEMBL document CHEMBL1201862, “PubChem BioAssay data set” (2004)
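Where inhibition never reached the appropriate level, the endpoint shown equals the highest concentration tested. Otherwise, values were interpolated linearly from a five-concentration, 48-hour dose response in 96-well plates. GI50 is the concentration that inhibits growth by half.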 Activity calls are given as the source filed them. Rule as the data show it: active = GI50 up to about 1.1 µM and inactive = higher.

Key:
Assay in all cases: growth of human tumour cells (NCI), 48 h
[1] = system: PC-3
[2] = system: Malme-3M
[3] = system: HOP-92
[4] = system: MDA-N
[5] = system: RXF 393
[6] = system: DU-145
[7] = system: 786-0
[8] = system: SW-620
[9] = system: ACHN
[10] = system: TK-10
[11] = system: NCI/ADR-RES
[12] = system: HCC 2998
[13] = system: HCT-116
[14] = system: SF-295
[15] = system: RPMI-8226
[16] = system: UACC-257
[17] = system: BT-549
[18] = system: SK-MEL-5
[19] = system: EKVX

Row | SMILES | GI50 [1] | GI50 [2] | GI50 [3] | GI50 [4] | GI50 [5] | GI50 [6] | GI50 [7] | GI50 [8] | GI50 [9] | GI50 [10] | GI50 [11] | GI50 [12] | GI50 [13] | GI50 [14] | GI50 [15] | GI50 [16] | GI50 [17] | GI50 [18] | GI50 [19]
1 | Cc1cc(C(=O)CSC(=S)SC(C)(C)C)ccc1Cl | 29.8 µM (inactive) | 16.8 µM (inactive) | 24.8 µM (inactive) | 15.8 µM (inactive) | 13.4 µM (inactive) | 26.5 µM (inactive) | 22.3 µM (inactive) | 23.2 µM (inactive) | 25 µM (inactive) | 25.2 µM (inactive) | 19.8 µM (inactive) | 16.7 µM (inactive) | 18.7 µM (inactive) | 17.7 µM (inactive) | 21.9 µM (inactive) | 18.2 µM (inactive) | 21.9 µM (inactive) | 17.8 µM (inactive) | 24.5 µM (inactive)
2 | Cn1cnc([N+](=O)[O-])c1SCC(=O)O | > 100 µM (inactive) | > 100 µM (inactive) | > 100 µM (inactive) | > 100 µM (inactive) | > 100 µM (inactive) | > 100 µM (inactive) | > 100 µM (inactive) | > 100 µM (inactive) | > 100 µM (inactive) | > 100 µM (inactive) | > 100 µM (inactive) | > 100 µM (inactive) | > 100 µM (inactive) | > 100 µM (inactive) | > 100 µM (inactive) | > 100 µM (inactive) | > 100 µM (inactive) | > 100 µM (inactive) | > 100 µM (inactive)
3 | CN(C)CCCN1c2ccccc2Sc2ccc3ccccc3c21 | 3.75 µM (inactive) | 6.49 µM (inactive) | 5.52 µM (inactive) | 4.12 µM (inactive) | 1.65 µM (inactive) | 12.8 µM (inactive) | 11 µM (inactive) | 8.3 µM (inactive) | 8.3 µM (inactive) | 4.45 µM (inactive) | 7.82 µM (inactive) | 1.53 µM (inactive) | 10.2 µM (inactive) | 13.2 µM (inactive) | 2.48 µM (inactive) | 1.84 µM (inactive) | 13.1 µM (inactive) | 4.17 µM (inactive) | 10.7 µM (inactive)
4 | COc1ccc(N2N=NN(C(C)C)/C2=C(/Cl)c2nnnn2-c2ccc(OC)cc2)cc1 | 14.6 µM (inactive) | 11.4 µM (inactive) | 2.25 µM (inactive) | 13.6 µM (inactive) | 13.8 µM (inactive) | 8.11 µM (inactive) | 2.76 µM (inactive) | 1.82 µM (inactive) | 16.6 µM (inactive) | 16.2 µM (inactive) | 27.7 µM (inactive) | 19.5 µM (inactive) | 5 µM (inactive) | 16.6 µM (inactive) | 8.99 µM (inactive) | 15.3 µM (inactive) | 15.6 µM (inactive) | 15.2 µM (inactive) | 18.2 µM (inactive)
5 | CC(C)/C(Cl)=N/OC(=O)Nc1ccc(Cl)c(Cl)c1 | 16.6 µM (inactive) | 2.16 µM (inactive) | 1.72 µM (inactive) | 3.59 µM (inactive) | 13.4 µM (inactive) | 18.1 µM (inactive) | 1.96 µM (inactive) | 2.13 µM (inactive) | 1.99 µM (inactive) | 5.86 µM (inactive) | 16.7 µM (inactive) | 14.9 µM (inactive) | 2.18 µM (inactive) | 17.7 µM (inactive) | 2.36 µM (inactive) | 14.6 µM (inactive) | 4.84 µM (inactive) | 11.6 µM (inactive) | 2 µM (inactive)
6 | Cc1cn([C@@H]2O[C@H](CO[Si](C)(C)C(C)(C)C)[C@]3(O[C@H]3C(=O)NO)[C@H]2O[Si](C)(C)C(C)(C)C)c(=O)[nH]c1=O | 2.26 µM (inactive) | 2.14 µM (inactive) | 1.94 µM (inactive) | 1.58 µM (inactive) | 1.73 µM (inactive) | 1.89 µM (inactive) | 1.54 µM (inactive) | 1.91 µM (inactive) | 1.7 µM (inactive) | 2.29 µM (inactive) | 5.7 µM (inactive) | 1.61 µM (inactive) | 1.52 µM (inactive) | 1.77 µM (inactive) | 1.18 µM (inactive) | 2.59 µM (inactive) | 1.66 µM (inactive) | 1.92 µM (inactive) | 1.84 µM (inactive)
7 | CC1(c2ccc(F)cc2)CC(c2ccc(F)cc2)=C(C#N)C(=C(C#N)C#N)N1 (stereo unspecified) | 16.3 µM (inactive) | 18.7 µM (inactive) | 12.6 µM (inactive) | 17.4 µM (inactive) | 12.8 µM (inactive) | 15.2 µM (inactive) | 15.3 µM (inactive) | 7.57 µM (inactive) | 16.6 µM (inactive) | 18.1 µM (inactive) | 20.5 µM (inactive) | 14.5 µM (inactive) | 15.6 µM (inactive) | 16.9 µM (inactive) | 5.55 µM (inactive) | 15.3 µM (inactive) | 24.9 µM (inactive) | 14.1 µM (inactive) | 17 µM (inactive)
8 | CC(C)(CO)NC1=C(Cl)C(=O)c2c(O)ccc(O)c2C1=O | 1.87 µM (inactive) | 1.87 µM (inactive) | 1.85 µM (inactive) | 0.885 µM (active) | 1.85 µM (inactive) | 1.9 µM (inactive) | 1.46 µM (inactive) | 0.327 µM (active) | 1.7 µM (inactive) | 1.88 µM (inactive) | 1.88 µM (inactive) | 1.43 µM (inactive) | 1.57 µM (inactive) | 1.7 µM (inactive) | 2.05 µM (inactive) | 1.71 µM (inactive) | 0.942 µM (active) | 1.09 µM (active) | 1.87 µM (inactive)
9 | O=C(O)c1c(CC(Cc2ccc3c(c2)CCCC3)C(=O)O)ccc2c1CCCC2 (stereo unspecified) | > 100 µM (inactive) | > 100 µM (inactive) | > 100 µM (inactive) | > 100 µM (inactive) | > 100 µM (inactive) | > 100 µM (inactive) | > 100 µM (inactive) | > 100 µM (inactive) | > 100 µM (inactive) | > 100 µM (inactive) | > 100 µM (inactive) | > 100 µM (inactive) | > 100 µM (inactive) | > 100 µM (inactive) | > 100 µM (inactive) | > 100 µM (inactive) | > 100 µM (inactive) | > 100 µM (inactive) | > 100 µM (inactive)
10 | COc1ccc(C(OCC2OC(n3cc(C)c(=O)[nH]c3=O)CC2n2cc(Cn3cc(Br)c(=O)[nH]c3=O)nn2)(c2ccccc2)c2ccccc2)cc1 (stereo unspecified) | 32.5 µM (inactive) | > 100 µM (inactive) | > 100 µM (inactive) | 21 µM (inactive) | > 100 µM (inactive) | > 100 µM (inactive) | > 100 µM (inactive) | > 100 µM (inactive) | > 100 µM (inactive) | > 100 µM (inactive) | > 100 µM (inactive) | > 100 µM (inactive) | > 100 µM (inactive) | > 100 µM (inactive) | 5.05 µM (inactive) | > 100 µM (inactive) | > 100 µM (inactive) | > 100 µM (inactive) | > 100 µM (inactive)
11 | COc1cc(/C=C(\C)[N+](=O)[O-])cc(OC)c1 | 20.1 µM (inactive) | 14.8 µM (inactive) | 13.5 µM (inactive) | 13 µM (inactive) | 7.48 µM (inactive) | 18.7 µM (inactive) | 4.59 µM (inactive) | 4.49 µM (inactive) | 16.4 µM (inactive) | 11.8 µM (inactive) | 20.2 µM (inactive) | 25.1 µM (inactive) | 16.1 µM (inactive) | 25.8 µM (inactive) | 3.12 µM (inactive) | 15.5 µM (inactive) | 19.2 µM (inactive) | 16 µM (inactive) | 19.2 µM (inactive)
12 | C[n+]1c2ccccc2n2c3ccccc3c(NCc3ccco3)c(C#N)c21 | 2.23 µM (inactive) | 2.43 µM (inactive) | 5.94 µM (inactive) | 1.96 µM (inactive) | 1.65 µM (inactive) | 3.09 µM (inactive) | 1.51 µM (inactive) | 0.64 µM (active) | 1.46 µM (inactive) | 1.52 µM (inactive) | 2.2 µM (inactive) | 0.659 µM (active) | 0.957 µM (active) | 2.67 µM (inactive) | 0.546 µM (active) | 3.48 µM (inactive) | 18.5 µM (inactive) | 2.78 µM (inactive) | 2.78 µM (inactive)
13 | O=C(O)c1ccc(Nc2nc3ccccc3nc2-c2cccs2)cc1 | > 100 µM (inactive) | 60.3 µM (inactive) | 68.2 µM (inactive) | > 100 µM (inactive) | 39.4 µM (inactive) | > 100 µM (inactive) | 71.9 µM (inactive) | > 100 µM (inactive) | 98.9 µM (inactive) | > 100 µM (inactive) | 39.1 µM (inactive) | > 100 µM (inactive) | 94 µM (inactive) | > 100 µM (inactive) | 68.1 µM (inactive) | > 100 µM (inactive) | 32.1 µM (inactive) | > 100 µM (inactive) | 92.5 µM (inactive)
14 | C[C@]12CC[C@@H]3c4ccc(OP(=O)(O)O)cc4CC[C@H]3[C@@H]1CCC2=O | 62.4 µM (inactive) | > 100 µM (inactive) | > 100 µM (inactive) | 58.5 µM (inactive) | 56.9 µM (inactive) | > 100 µM (inactive) | > 100 µM (inactive) | 63.7 µM (inactive) | > 100 µM (inactive) | > 100 µM (inactive) | 56 µM (inactive) | > 100 µM (inactive) | 55.1 µM (inactive) | 71.8 µM (inactive) | 44.4 µM (inactive) | > 100 µM (inactive) | 67.6 µM (inactive) | 28.4 µM (inactive) | 42.8 µM (inactive)
